Assay results from patent US4665068A, “Novel 9-chloro-1,5-benzothiazepine derivatives and their pharmaceutical use” (Tanabe Seiyaku Co., Ltd., priority 1984, dated 1987).
Structures can show the parent of a compound that is named as a salt.

Assays:
[1] = tested on: vertebral artery blood flow; assay: Cerebral vasodilating activity, blood flow in vertebral artery of anesthetized dogs; assay type: in vivo, dog (male); settings: for Cerebral vasodilating activity (potency ratio): potency ratio to papaverine from dose-response curves, injected into vertebral artery; for increase in vertebral artery blood flow / cerebral vasodilating activity, times stronger than the 7-chloro derivative: intraarterial; for cerebral vasodilating activity, times stronger than the 7-chloro derivative: vs (±)-cis-3-acetoxy-7-chloro derivative hydrochloride
Experimental: (§1) On the other hand, when the coronary vasodilating activity is estimated by the Langendorff method using isolated hearts of guinea pigs, said activity of (+)-cis-2-(4-methoxyphenyl)-3-acetoxy-5-[2-(dimethylamino)ethyl]-9-chloro- 2,3-dihydro-1,5-benzothiazepin-4(5H)-one hydrochloride is about 10 times stronger than that of papaverine.
(Cerebral vasodilating activity)
Male dogs weighing 10 to 20 kg were anesthetized with sodium pentobarbital (30 mg/kg, intravenous injection). The blood flow in vertebral artery was measured continuously by means of an electromagnetic flowmeter under artificial respiration. A test compound dissolved in an aqueous 5% glucose solution was injected into vertebral artery. The cerebral vasodilating activity of the test compound was estimated in terms of the potency ratio of said compound to papaverine, which was calculated from the dose-response curves thereof.

[2] = tested on: spontaneously hypertensive rats (SHR); assay: Hypotensive activity, systolic blood pressure of SHR after oral dosing (tail plethysmographic technique); assay type: in vivo, rat (spontaneously hypertensive; settings: 30 mg/kg oral
Experimental: A test compound (dose: 30 mg/kg) dissolved or suspended in water was administered orally to spontaneously hypertensive rats (SHR) (one group: 3 rats) fasted overnight. […] The hypotensive activity of the test compound was estimated at one or 4 hours after dosing and expressed as "-" if the decrease in blood pressure is less than 10 mm Hg; "+" if the decrease is not less than 10 mm Hg but less than 20 mm Hg; "++" if the decrease is not less than 20 mm Hg but less than 40 mm Hg; "+++" if the decrease is not less than 40 mm Hg but less than 60 mm Hg; or "++++" if the decrease is not less than 60 mm Hg.

[3] = tested on: coronary blood flow of the isolated heart of guinea pig; assay: Coronary vasodilating activity, Langendorff's method, isolated heart of guinea pig; settings: for Coronary vasodilating activity: isolated guinea pig heart
Excerpt: as §1
(Coronary vasodilating activity)
Langendorff's method was used for testing the effect on the coronary blood flow of the isolated heart of guinea pig (about 280 g). The isolated heart was perfused with Locke-Ringer solution containing 2% of defibrinated rabbit blood, which had been saturated with a mixed gas of 95% O2 and 5% CO2 (30° C.). Perfusion pressure was kept at 40 cm H2 O. A solution of a test compound in an aqueous 5% glucose solution was injected into the perfusing solution at a volume of 0.1 ml per heart. The outflow of the perfusate was measured by means of a drop counter.
The coronary vasodilating activity of the test compound was expressed as "±" if the increase in coronary blood flow is less than 0.5 ml/minute at a dose of 100 μg/heart; "+" if the increase is not less than 0.5 ml/minute at a dose of 100 μg/heart; "++" if the increase is not less than 0.5 ml/minute at a dose of 30 μg/heart; and "+++" if the increase is not less than 0.5 ml/minute at a dose of not more than 10 μg/heart.

platelet aggregation = assay: Platelet aggregation-inhibiting activity (collagen, platelet-rich plasma, Born's method); assay type: cell-based, rat (male Sprague-Dawley); set-up: key to the marks not given beside the values; settings: final concentration 100 μg/ml, rat PRP, 37° C.
Excerpt: (Platelet aggregation-inhibiting activity)
Blood was collected from the abdominal aorta of male Sprague-Dawley rats which were anesthetized with ether. Nine volumes of rat blood were mixed with one volume of an aqueous trisodium citrate solution, and the mixture was centrifuged to give platelet-rich plasma ("PRP") as the supernatant solution. The bottom layer was further centrifuged to give platelet-poor plasma ("PPP") as the supernatant solution. Platelet counts were adjusted to 0.8-1×10^6 /mm^3 for PRP by dilution with PPP. After a mixture of 200 μl of the diluted PRP and 25 μl of a test compound solution (final concentration: 100 μg/ml) was stirred for 2 minutes at 37° C., 25 μl of a collagen solution [Biochim. Biophys.

[4] = Acute toxicity, oral, mice; settings: mouse, in vivo
Experimental: For example, the acute toxicity (LD50) of (+)-cis-2-(4-methoxypnenyl)-3-acetoxy-5-[2-(dimethylamino)ethyl]-9-chloro- 2,3-dihydro-1,5-benzothiazepin-4(5H)-one hydrochloride when orally administered to mice is about 1,000 mg/kg.

SMILES | Cerebral vasodilating activity (potency ratio) [1] | Hypotensive activity, 1 hr after dosing [2] | Hypotensive activity, 4 hrs after dosing [2] | Coronary vasodilating activity [3] | further results
COc1ccc([C@@H]2Sc3ccc(Cl)cc3N(CCN(C)C)C(=O)[C@@H]2OC(C)=O)cc1.Cl (racemic) [(±)-cis-2-(4-methoxyphenyl)-3-acetoxy-5-[2-(dimethylamino)ethyl]-7-chloro-2,3-dihydro-1,5-benzothiazepin-4(5H)-one hydrochloride, reference compound] | 5 |  |  |  | 
COc1ccc([C@@H]2Sc3c(Cl)cccc3N(CCN(C)C)C(=O)[C@@H]2OC(C)=O)cc1.Cl (racemic) [(±)-cis-2-(4-methoxyphenyl)-3-acetoxy-5-[2-(dimethylamino)ethyl]-9-chloro-2,3-dihydro-1,5-benzothiazepin-4(5H)-one hydrochloride] |  | +++ (decrease is not less than 40 mm Hg but less than 60 mm Hg) | +++ (decrease is not less than 40 mm Hg but less than 60 mm Hg) | +++ (increase is not less than 0.5 ml/minute at a dose of not more than 10 μg/heart) | Platelet aggregation-inhibiting activity (platelet aggregation): ++
COc1ccc([C@@H]2Sc3c(Cl)cccc3N(CCN(C)C)C(=O)[C@@H]2O)cc1.Cl (racemic) [(±)-cis-2-(4-methoxyphenyl)-3-hydroxy-5-[2-(dimethylamino)ethyl]-9-chloro-2,3-dihydro-1,5-benzothiazepin-4(5H)-one hydrochloride] |  |  |  | +++ (increase is not less than 0.5 ml/minute at a dose of not more than 10 μg/heart) | Platelet aggregation-inhibiting activity (platelet aggregation): ++
COc1ccc([C@@H]2Sc3ccc(Cl)cc3N(CCN(C)C)C(=O)[C@@H]2OC(C)=O)cc1 (relative stereo) [(+)-cis-2-(4-methoxyphenyl)-3-acetoxy-5-[2-(dimethylamino)ethyl]-7-chloro-2,3-dihydro-1,5-benzothiazepin-4(5H)--one hydrochloride, reference compound] |  | ++ (decrease is not less than 20 mm Hg but less than 40 mm Hg) | + (decrease is not less than 10 mm Hg but less than 20 mm Hg) |  | 
COc1ccc([C@@H]2Sc3c(Cl)cccc3N(CCN(C)C)C(=O)[C@@H]2OC(C)=O)cc1.Cl (single isomer, unassigned) [(+)-cis-2-(4-methoxyphenyl)-3-acetoxy-5-[2-(dimethylamino)ethyl]-9-chloro-2,3-dihydro-1,5-benzothiazepin-4(5H)-one hydrochloride] | 15 | ++++ (decrease is not less than 60 mm Hg) | +++ (decrease is not less than 40 mm Hg but less than 60 mm Hg) | +++ (increase is not less than 0.5 ml/minute at a dose of not more than 10 μg/heart) | decrease in blood pressure, one hour after administration ([2]; 1 hour): about 74 mm Hg; decrease in blood pressure, 4 hours after administration ([2]; 4 hours): ~54 mm Hg; increase in vertebral artery blood flow [1]: remarkable increase in vertebral artery blood flow; cerebral vasodilating activity, times stronger than the 7-chloro derivative [1]: more than 3 times; coronary vasodilating activity, times stronger than papaverine ([3]; isolated guinea pig hearts, vs papaverine): about 10 times; LD50 [4]: ~1000 mg/kg
COc1ccc([C@@H]2Sc3c(Cl)cccc3N(CCN(C)C)C(=O)[C@@H]2O)cc1.[O-][Cl+3]([O-])([O-])O (single isomer, unassigned) [(+)-cis-2-(4-methoxyphenyl)-3-hydroxy-5-[2-(dimethylamino)ethyl]-9-chloro-2,3-dihydro-1,5-benzothiazepin-4(5H)-one perchlorate] | 22 | +++ (decrease is not less than 40 mm Hg but less than 60 mm Hg) | ++ (decrease is not less than 20 mm Hg but less than 40 mm Hg) | +++ (increase is not less than 0.5 ml/minute at a dose of not more than 10 μg/heart) | increase in vertebral artery blood flow [1]: remarkable increase in vertebral artery blood flow; cerebral vasodilating activity, times stronger than the 7-chloro derivative [1]: more than 3 times
COc1ccc(Cc2nccc3cc(OC)c(OC)cc23)cc1OC [Papaverine, reference compound] |  |  |  | + (increase is not less than 0.5 ml/minute at a dose of 100 μg/heart) | 
